From patent publication US8268823B2, “Medical use of triazine derivatives” (University of Greenwich, priority 2006, dated 2012)
Several values for one entry are separate records, joined by “and”; a condition that tells them apart may be missing. Equal values may be shown once. Where a name gives a salt, the structure may show the parent alone. Read-outs that look alike come from different tables or passages of the source. Values belong to the compound of their own block, whether it stands above or below them.

Tests used:
[1] = target: T1, DiHydroFolate Reductase (DHFR) (Rattus norvegicus, UniProt Q920D2); experiment: inhibition of binding of [3H]methotrexate to rat liver homogenate supernatant; conditions: for inhibition at 10 µM / inhibition at 99 µM / inhibition at 50 µM: read-out: [3H]methotrexate binding Inhibition (% @ assay conc'n); for inhibition at 99 µM: assay concentration 99 μM; for inhibition at 50 µM: assay concentration 50 μM
T1 construct: from tissue; host or cells: rat liver homogenate supernatant (47,500 x g)
T1 sequence (Q920D2 1-187): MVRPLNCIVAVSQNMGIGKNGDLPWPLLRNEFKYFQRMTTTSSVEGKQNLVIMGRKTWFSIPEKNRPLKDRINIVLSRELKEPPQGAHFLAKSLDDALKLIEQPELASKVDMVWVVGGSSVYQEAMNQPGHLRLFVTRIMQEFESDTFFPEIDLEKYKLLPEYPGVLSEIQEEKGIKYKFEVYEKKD

hERG potassium channel [2] = target: T2, hERG potassium channel (Homo sapiens, UniProt Q12809)
sodium channel [3] = assay type: binding, rat
sodium channel [4] = experiment: veratrine-evoked uptake of [14C]guanidine into rat forebrain synaptosomes ([14C]guanidine flux); assay type: biochemical; conditions: for Hill (uptake of [14C]guanidine): slope
hERG potassium channel [5] = target: T2, hERG potassium channel; experiment: inhibition of binding of [3H]astemizole to cell membranes expressing hERG
hERG potassium channel [6] = target: T2, hERG potassium channel; experiment: in vitro
[7] = Table 4, tissue prep'n Homogenate, read-out: [3H]BTX-B binding Mean (IC50: μM)
[8] = Table 4, tissue prep'n Synaptosomes, read-out: [3H]BTX-B binding Mean (IC50: μM)
[9] = Table 3, rat forebrain synaptosomes, read-out: [14C]guanidine flux Mean (IC50: μM)
[10] = Table 8, read-out: IC50 (μM) (uptake of [14C]guanidine)

T2 sequence (Q12809 whole entry): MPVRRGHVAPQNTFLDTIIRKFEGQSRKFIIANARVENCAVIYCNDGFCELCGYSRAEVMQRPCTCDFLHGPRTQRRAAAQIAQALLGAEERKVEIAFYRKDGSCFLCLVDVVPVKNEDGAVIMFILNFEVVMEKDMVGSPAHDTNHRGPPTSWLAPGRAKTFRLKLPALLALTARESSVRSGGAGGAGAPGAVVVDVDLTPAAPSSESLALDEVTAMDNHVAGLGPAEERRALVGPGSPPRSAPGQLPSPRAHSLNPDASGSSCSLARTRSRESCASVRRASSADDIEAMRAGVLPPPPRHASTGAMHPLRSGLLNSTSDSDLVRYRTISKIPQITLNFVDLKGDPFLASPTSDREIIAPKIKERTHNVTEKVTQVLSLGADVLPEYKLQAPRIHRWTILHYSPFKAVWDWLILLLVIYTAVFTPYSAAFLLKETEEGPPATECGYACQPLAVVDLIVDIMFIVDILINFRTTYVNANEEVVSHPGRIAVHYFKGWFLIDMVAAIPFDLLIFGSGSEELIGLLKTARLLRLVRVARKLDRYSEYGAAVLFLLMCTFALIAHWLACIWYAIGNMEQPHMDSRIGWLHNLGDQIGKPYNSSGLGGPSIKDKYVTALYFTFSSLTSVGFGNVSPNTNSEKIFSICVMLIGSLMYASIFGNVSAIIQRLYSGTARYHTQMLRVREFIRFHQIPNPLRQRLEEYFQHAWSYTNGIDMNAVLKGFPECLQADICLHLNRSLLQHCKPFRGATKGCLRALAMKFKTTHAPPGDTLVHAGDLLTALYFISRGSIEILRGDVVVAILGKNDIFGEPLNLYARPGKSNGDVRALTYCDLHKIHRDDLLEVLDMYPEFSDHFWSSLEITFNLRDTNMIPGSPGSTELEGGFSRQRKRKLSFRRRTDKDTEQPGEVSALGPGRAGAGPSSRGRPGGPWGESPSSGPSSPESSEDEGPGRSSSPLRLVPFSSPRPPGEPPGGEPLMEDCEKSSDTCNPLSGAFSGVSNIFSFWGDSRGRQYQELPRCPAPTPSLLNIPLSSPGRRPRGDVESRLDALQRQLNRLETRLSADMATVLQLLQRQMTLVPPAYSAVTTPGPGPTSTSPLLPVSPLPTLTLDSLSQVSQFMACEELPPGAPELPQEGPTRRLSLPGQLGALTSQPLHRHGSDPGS

SMILES: CCn1nc(-c2cc(Cl)ccc2Cl)c(N)nc1=N (as salt: methanesulfonate) [Example 49, 5(3)-Amino-6-(2,5-dichlorophenyl)-2,3(2,5)-dihydro-3(5)-imino-2-ethyl-1,2,4-triazine methanesulfonate]
- melting point: 264 to 265 °C

SMILES: N=c1nc(N)c(-c2cc(Cl)cc(Cl)c2Cl)nn1CCF (as salt: methanesulfonate) [Example 55, 5(3)-Amino-6-(2,3,5-trichlorophenyl)-2,3(2,5)-dihydro-3(5)-imino-2-(2-fluoroethyl)-1,2,4-triazine methanesulfonate]
- melting point: 212 to 214 °C

SMILES: CC(C)n1nc(-c2cccc(Cl)c2Cl)c(N)nc1=N [Example 4, 5(3)-Amino-6-(2,3-dichlorophenyl)-2,3(2,5)-dihydro-3(5)-imino-2-isopropyl-1,2,4-triazine]
- inhibition at 10 µM ([1]; assay concentration 10 μM): -1%
- inhibition at 99 µM [1]: 0%
- hERG / [14C]guanidine flux selectivity (hERG potassium channel [2]; human): 6.7
- IC50 (sodium channel [3]; [7]): 0.6 µM
- IC50 (sodium channel [3]; [8]): 1.5 µM
- IC50 (sodium channel [4]; [9]): 4 µM
- IC50 (hERG potassium channel [5]): 18.6 µM and 19.4 µM
- inhibition at 10 µM (hERG potassium channel [6]; hERG % inhibition @ 10 μM): 35%
- selectivity ratio (hERG potassium channel [6]; hERG / [14C]guanidine flux selectivity): 6.6

SMILES: N=c1nc(N)c(-c2cccc(Cl)c2Cl)nn1CCO [Example 5, 5(3)-Amino-6-(2,3-dichlorophenyl)-2,3(2,5)-dihydro-3(5)-imino-2-(2-hydroxyethyl)-1,2,4-triazine]
- [3H]methotrexate binding Inhibition (% @ assay conc'n) ([1]; assay concentration 10 μM): −1%
- [3H]methotrexate binding Inhibition (% @ assay conc'n) ([1]; assay concentration 101 μM): 1%
- IC50 (hERG potassium channel [2]): 7.2 µM
- hERG / [14C]guanidine flux selectivity (hERG potassium channel [2]): 3.5
- IC50 (sodium channel [3]; [7]): 7.2 µM
- IC50 (sodium channel [3]; [8]): 25.7 µM
- IC50 (sodium channel [3]; Table 5, Synaptosome data, read-out: [3H]BTX-B IC50): 1.7 µM
- IC50 (sodium channel [4]; [9]): 172 µM
- IC50 (sodium channel [4]; Table 5, read-out: [14C]guanidine flux IC50): 2.1 µM
- hERG / [3H]BTX-B selectivity (hERG potassium channel [5]; ratio of extrapolated hERG IC50 to [3H]BTX-B IC50 (synaptosomes)): 4.3

SMILES: Nc1nnc(-c2cccc(F)c2Cl)c(N)n1 [Example 40, 2-chloro-3-fluorophenyl-1,2,4-triazine-3,5-diamine]
- IC50 ([1]; rat liver supernatant): 589 µM
- IC50 (sodium channel [3]; [8]): 283 µM
- melting point: 244 to 246 °C
- IC50 (sodium channel [4]; [9]): 834 µM

SMILES: Nc1nnc(-c2cc(Cl)ccc2Cl)c(N)n1 [Example 41, 3,5-Diamino-6-(2,5-dichlorophenyl)-1,2,4-triazine]
- inhibition at 50 µM [1]: 93%
- melting point: 228 to 230 °C
- IC50 (sodium channel [4]; [9]): 525 µM

SMILES: CCn1nc(-c2cc(Cl)cc(Cl)c2Cl)c(N)nc1=N [Example 50]
- melting point: 269 to 271 °C
- pIC50 (uptake of [14C]guanidine) (sodium channel [4]; Table 8): 5.52 ± 0.03
- IC50 (sodium channel [4]; [10]): 3 µM
- Hill (uptake of [14C]guanidine) (sodium channel [4]; Table 8): 0.93

SMILES: Nc1nnc(-c2ccccc2OC(F)(F)F)c(N)n1 [Example 51, 3,5-Diamino-6-(2-trifluoromethoxyphenyl)-1,2,4-triazine]
- melting point: 148 to 150 °C
- pIC50 (uptake of [14C]guanidine) (sodium channel [4]; Table 8): 2.76 ± 0.11
- IC50 (sodium channel [4]; [10]): 1740 µM
- Hill (uptake of [14C]guanidine) (sodium channel [4]; Table 8): 1.22

Other lines, results leading:

- melting point: 234 to 236 °C
SMILES: Cn1nc(-c2cc(Cl)cc(Cl)c2)c(N)nc1=N (as salt: methanesulfonate) [Example 53, 5(3)-Amino-6-(3,5-dichlorophenyl)-2,3(2,5)-dihydro-3(5)-imino-2-methyl-1,2,4-triazine methanesulfonate]

- melting point: 217 to 219 °C
SMILES: CCn1nc(-c2cc(Cl)cc(Cl)c2)c(N)nc1=N (as salt: methanesulfonate) [Example 54, 5(3)-Amino-6-(3,5-dichlorophenyl)-2,3(2,5)-dihydro-3(5)-imino-2-ethyl-1,2,4-triazine methanesulfonate]

- inhibition at 10 µM ([1]; assay concentration 10 μM): -2%
- inhibition at 99 µM [1]: -3%
- melting point: 212 to 215 °C
- IC50 (sodium channel [4]; [9]): 5 µM
SMILES: COc1ccc(Cn2nc(-c3cccc(Cl)c3Cl)c(N)nc2=N)cc1 [Example 19, 5(3)-Amino-6-(2,3-dichlorophenyl)-2,3(2,5)-dihydro-3(5)-imino-2-(4-methoxy)phenylmethyl-1,2,4-triazine]

- inhibition at 50 µM [1]: 99%
- melting point: 223 to 225 °C
- IC50 (sodium channel [4]; [9]): 155 µM
SMILES: Nc1nnc(-c2cc(Cl)cc(Cl)c2)c(N)n1 [Example 42, 3,5-Diamino-6-(3,5-dichlorophenyl)-1,2,4-triazine]
